For 13 molecules, IC50 results are on record in patent US20240270751A1, “Pyrazolopyridinone Compounds” (BeiGene Ltd., priority 2021, published 2024).

Where only a bound is given, the exact number is not on record here.

The target in one assay is DGKζ (Homo sapiens (Human), UniProt Q13574). The assay can be described thus: Biochemical DGK IC50 assay, DGKζ ADP-Glo assay. The conditions noted are these: 0.5 nM enzyme, 140 μM ATP, 80 μM DAG; read-out: DGKζ ADP-Glo assay IC50. The essentials: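 Full-length human DGKζ, His-TEV tagged and purified from baculovirus-infected Sf9 cells, assayed by ADP-Glo with DAG/PS lipid micelle substrate prepared in 25 mM HEPES pH 7.0 with octyl glucoside. Final compound concentrations spanned 1.55–10000 nM or 23.3–150000 nM.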
Chain of DGKζ (Q13574 other isoform, or with tags, fused parts or gaps): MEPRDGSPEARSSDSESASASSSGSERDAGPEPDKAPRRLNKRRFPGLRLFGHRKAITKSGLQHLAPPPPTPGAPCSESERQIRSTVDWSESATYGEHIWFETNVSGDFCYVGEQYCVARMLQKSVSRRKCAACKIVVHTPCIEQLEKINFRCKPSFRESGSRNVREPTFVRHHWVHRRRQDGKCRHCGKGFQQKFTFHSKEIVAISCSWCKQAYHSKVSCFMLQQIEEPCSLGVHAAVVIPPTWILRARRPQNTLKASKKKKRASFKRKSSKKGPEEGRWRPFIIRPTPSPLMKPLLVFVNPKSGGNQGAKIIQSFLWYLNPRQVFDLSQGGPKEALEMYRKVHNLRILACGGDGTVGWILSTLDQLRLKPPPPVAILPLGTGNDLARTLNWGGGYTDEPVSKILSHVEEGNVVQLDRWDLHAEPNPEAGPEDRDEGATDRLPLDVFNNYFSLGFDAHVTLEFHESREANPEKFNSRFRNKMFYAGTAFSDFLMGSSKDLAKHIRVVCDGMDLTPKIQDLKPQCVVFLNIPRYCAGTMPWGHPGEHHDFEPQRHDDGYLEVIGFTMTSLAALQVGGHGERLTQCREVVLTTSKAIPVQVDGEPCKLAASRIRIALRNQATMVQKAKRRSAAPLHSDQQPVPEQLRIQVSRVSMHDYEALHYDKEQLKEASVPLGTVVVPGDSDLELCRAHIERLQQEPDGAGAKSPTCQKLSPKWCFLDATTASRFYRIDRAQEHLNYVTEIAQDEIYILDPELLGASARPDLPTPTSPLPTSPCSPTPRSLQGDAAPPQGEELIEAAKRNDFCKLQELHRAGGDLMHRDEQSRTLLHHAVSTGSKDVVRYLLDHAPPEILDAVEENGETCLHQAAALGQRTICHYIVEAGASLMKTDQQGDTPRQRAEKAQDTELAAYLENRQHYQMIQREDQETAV

In the next assay the target is DGKα (Homo sapiens (Human), UniProt P23743). The assay can be described thus: Biochemical DGK IC50 assay, DGKα ADP-Glo assay. The conditions noted are these: 7.5 nM enzyme, 140 μM ATP, 80 μM DAG. The method, boiled down:
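ADP-Glo read-out with full-length DGKα on DAG/PS lipid micelle substrate in 25 mM HEPES pH 7.0, 0.5 mM EDTA, 160 mM octyl β-D-glucopyranoside. Compound final concentrations spanned 1.55˜10000 nM or 23.3˜150000 nM.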

Chain of DGKα (P23743 whole entry): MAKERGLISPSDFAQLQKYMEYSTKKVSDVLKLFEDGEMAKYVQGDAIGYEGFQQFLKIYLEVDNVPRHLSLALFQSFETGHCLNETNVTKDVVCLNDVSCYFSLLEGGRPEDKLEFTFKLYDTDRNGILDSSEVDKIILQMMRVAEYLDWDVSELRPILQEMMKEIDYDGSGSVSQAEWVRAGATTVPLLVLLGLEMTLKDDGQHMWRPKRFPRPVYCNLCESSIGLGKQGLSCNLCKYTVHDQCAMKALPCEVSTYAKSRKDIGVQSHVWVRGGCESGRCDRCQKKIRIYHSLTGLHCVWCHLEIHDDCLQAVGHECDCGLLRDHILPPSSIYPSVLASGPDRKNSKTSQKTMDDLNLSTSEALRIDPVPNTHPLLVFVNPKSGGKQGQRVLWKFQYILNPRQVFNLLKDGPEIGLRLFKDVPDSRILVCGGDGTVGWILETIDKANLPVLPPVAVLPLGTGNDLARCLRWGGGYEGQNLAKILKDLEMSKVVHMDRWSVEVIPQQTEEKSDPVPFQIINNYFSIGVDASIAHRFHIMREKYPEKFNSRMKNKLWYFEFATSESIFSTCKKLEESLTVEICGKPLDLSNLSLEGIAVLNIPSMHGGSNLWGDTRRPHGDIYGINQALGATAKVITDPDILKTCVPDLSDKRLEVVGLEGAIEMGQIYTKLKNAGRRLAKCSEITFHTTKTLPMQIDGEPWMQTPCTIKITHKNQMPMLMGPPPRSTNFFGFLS

For the molecule `CCc1cnc2ccc(C(C)N3C[C@H](C)N(c4cc(=O)n(C)c5cn(CC#N)nc45)C[C@H]3C)cc2n1` (stereo partly drawn) [Compound A278, 2-(7-((2S,5R)-4-(1-(3-ethylquinoxalin-6-yl)ethyl)-2,5-dimethylpiperazin-1-yl)-4-methyl-5-oxo-4,5-dihydro-2H-pyrazolo[4,3-b]pyridin-2-yl)acetonitrile], the values for the IC50 at DGKζ and against DGKα were 64 nM and 55100 nM, respectively.

As to `[2H]C([2H])([2H])n1c(=O)cc(N2C[C@@H](C)N(C(C)c3ccc(F)cc3C(F)(F)F)C[C@@H]2C)c2nn(CC#N)cc21` (stereo partly drawn) [Compound A257, 2-(7-((2S,5R)-4-(1-(4-fluoro-2-(trifluoromethyl)phenyl)ethyl)-2,5-dimethylpiperazin-1-yl)-4-(methyl-d3)-5-oxo-4,5-dihydro-2H-pyrazolo[4,3-b]pyridin-2-yl)acetonitrile], the figures for the IC50 at DGKζ and on DGKα were 652 nM and greater than 10000 nM, respectively.

On to `CC[C@@H]1CN(c2cc(=O)n(C)c3cn(CC#N)nc23)[C@@H](CC)CN1C(=O)c1ccc2cccnc2c1` [Compound A373], for which the IC50 at DGKζ stood at 3220 nM; at DGKα, 21800 nM.

On to `CC[C@H]1CN(C(C)c2cnn(C)c2C(F)F)[C@H](CC)CN1c1cc(=O)n(C)c2cn(CC#N)nc12` (some centres unmarked) [Compound A234], for which the IC50 is 159 nM at DGKζ and 7330 nM at DGKα.

As to `CC[C@H]1CN(C(C)c2ccc(C3CC3)cc2OC)[C@H](CC)CN1c1cc(=O)n(C)c2cn(CC#N)nc12` (single isomer, unassigned) [Compound A199b], the IC50 is 803 nM on DGKζ and greater than 10000 nM at DGKα.

`CC[C@H]1CN(C(C)c2ccc(C(F)F)cc2)[C@H](CC)CN1c1cc(=O)n(C)c2cn(CC#N)nc12` (some centres unmarked) [Compound A128]: the figures for the IC50 at DGKζ and on DGKα were 112 nM and 31 nM, respectively.

With `CC[C@H]1CN(C(C)c2ccc(C(F)(F)F)cc2F)[C@H](CC)CN1c1cc(=O)n(C)c2c[nH]nc12` (single isomer, unassigned) [Compound A231a], the IC50 was greater than 10000 nM on DGKζ and 1120 nM on DGKα.

Turning to `CC[C@@H]1CN(c2cc(=O)n(C)c3cn(CC#N)nc23)[C@@H](CO)CN1C(C)c1ccc2nccnc2c1` (stereo partly drawn) [Compound A229, 2-(7-((2R,5R)-5-ethyl-2-(hydroxymethyl)-4-(1-(quinoxalin-6-yl)ethyl)piperazin-1-yl)-4-methyl-5-oxo-4,5-dihydro-2H-pyrazolo[4,3-b]pyridin-2-yl)acetonitrile], the IC50 amounted to 166 nM on DGKζ and 24100 nM against DGKα.

Consider `COc1cc(F)c(C(C)N2C[C@H](C)N(c3cc(=O)n(C)c4cn(CC#N)nc34)C[C@H]2C)cc1F` (some centres unmarked) [Compound A35], for which the results for the IC50 at DGKζ and on DGKα were 1200 nM and 870 nM, respectively.

With `CC(c1ccc(F)cc1C(C)(F)F)N1C[C@H](C)N(c2cc(=O)n(C)c3cn(CC#N)nc23)C[C@H]1C` (stereo partly drawn) [Compound A254, 2-(7-((2S,5R)-4-(1-(2-(1,1-difluoroethyl)-4-fluorophenyl)ethyl)-2,5-dimethylpiperazin-1-yl)-4-methyl-5-oxo-4,5-dihydro-2H-pyrazolo[4,3-b]pyridin-2-yl)acetonitrile], the concentration for half-maximal inhibition (IC50) at DGKζ was 307 nM; on DGKα, greater than 10000 nM.

For the molecule `CC[C@@H]1CN(c2cc(=O)n(C)c3cn(CC)nc23)[C@@H](C)CN1C(C)c1ccc2nccnc2c1` (single isomer, unassigned) [Compound A221b], the figures for the IC50 at DGKζ and against DGKα were greater than 10000 nM and 2370 nM, respectively.

Take `CC[C@H]1CN(C(C)c2ccc(C3CC3)cc2OC)[C@H](CC)CN1c1cc(=O)n(C)c2cn(CC#N)nc12` (single isomer, unassigned) [Compound A199a]: the IC50 on DGKζ was 2460 nM; at DGKα, greater than 10000 nM.

Consider `CC[C@H]1CN(C(C)c2ccc(F)c(OC)c2)[C@H](CC)CN1c1cc(=O)n(C)c2cn(CC#N)nc12` (some centres unmarked) [Compound A82], for which the IC50 was determined as 90 nM at DGKζ and 1020 nM against DGKα.
